# In patent publication US20220259235A1, “EGFR Inhibitor, Composition, and Preparation Method Therefor” (BETTA PHARMACEUTICALS CO., LTD, priority 2019, published 2022):
# pIC50: −log10 of the molar value.
# Columns and labels:
# EGFR Δ19del/T790M/C797S = EGFR Δ19del/T790M/C797S (Homo sapiens, UniProt P00533, T790M/C797S, form not given); test: EGFR Δ19del/T790M/C797S kinase test (mobility shift, Caliper EZ Reader); format: biochemical; conditions: kinase enzymatic activity, numeric values
# Procedure: Mobility variation analysis was performed to determine the affinity of the compound for EGFRΔ19del/T790M/C797S. The enzymatic reaction scheme is as follows:
# 1. Prepare 1* kinase buffer as follows:
# 2. Preparation of compound concentration gradient: The test compound was tested with an initial concentration of 3000 nM or 100 nM, diluted in a 384 source plate to a 100% DMSO solution with 100-fold final concentration, and the compound is 3-fold diluted with Precision to 10 concentrations. A dispenser Echo 550 was used to transfer 250 nL 100-fold final concentration of the compound to the target plate OptiPlate-384F.
# 3. Prepare 2.5-fold final concentration of kinase solution with 1×Kinase buffer;
# 4. Add 10 μL of 2.5-fold final concentration of kinase solution to the compound well and the positive control well; add 10 μL of 1×Kinase buffer to the negative control well.
# 5. Centrifuge at 1000 rpm for 30 seconds, shake the reaction plate for well mixation, and then incubate at room temperature for 10 minutes.
# 6. Prepare a mixture of ATP and Kinase substrate at 5/3-fold final concentration with 1×Kinase buffer.
# 7. Add 15 μL mixture of 5/3-fold final concentration of ATP and substrate to start reaction.
# 8. Centrifuge the 384-well plate at 1000 rpm for 30 seconds, shake it well and then incubate it at room temperature for corresponding time.
# 9. Add 30 μL of stop detection solution to stop the kinase reaction, centrifuge at 1000 rpm for 30 seconds, shake it well.
# 10. Read conversion rate with Caliper EZ Reader.
# % Inhibition=((Conversion%_max−Conversion%_sample)/(Conversion%_max−Conversion%_min))*100
# Wherein: Conversion%_sample is the sample conversion rate reading; Conversion%_min: Mean value of negative control wells, representing the conversion rate reading of wells without enzymatic activity; Conversion%_max: Mean value of positive control wells, representing the conversion rate reading of wells without compound inhibition.
# The dose-effect curve was fitted with concentration log value as X-axis and percentage inhibition rate as Y-axis. Log (inhibitor) vs. Response—Variable Slope of GraphPad Prism 5 was used to fit the dose-effect curve to obtain IC50 value of enzymatic activity for each compound.
# The calculation formula is as Y=Bottom (Top−Bottom)/(1+10^((LogIC50−X)*HillSlope)).
# As illustrated in examples, IC50 value is within the following range for the compound of the present invention: “A” represents “IC50≤1nM”; “B” represents “1 nM<IC50≤100nM”.
# hERG protein = molecular target: T1, hERG protein (Homo sapiens, UniProt Q12809); test: hERG IC50 test (tracer/membranes fluorescence polarization); format: binding; conditions: hERG membranes and tracer, read-out: IC50 results of hERG protein to compound
# T1 construct: purchased
# Procedure: 1. Thaw hERG kits (Tracer, E-4031 and Membranes) at room temperature;
# 2. Add 10 μL of positive compound E-4031 and 10 μL of test compound (10 mM) to 384 well plate (Corning, Art. No. 3658);
# 3. E-4031 is sequentially 5-fold diluted by pure water (10 concentration points in total), and the test compound is sequentially 5-fold diluted by DMSO (10 concentration points in total).
# 4. Take 1 μL of all gradient concentrations and add them in parallel to the wells containing 24 μL Assay buffer, and dilute 25 times (take 3 μL of the maximum concentration of E-4031 and add it to 72 μL Assay buffer).
# 5. Add 10 μL Membranes to another black 384-well plate (Coming, Art.4511).
# 6. Take 5 μL of 25-fold diluted working solution of positive and test compounds, and add it to above-mentioned plate with 10 μL Membranes, 2 copies at each concentration.
# 7. Negative control: Add 5 μL Assay buffer to the well with 10 μL Membranes, 8 copies in parallel;
# 8. Positive control: Add 5 μL E-4031 (120 μM) to the well with 10 μL Membranes, 8 copies in parallel;
# 9. […]
# 10. Before measuring the fluorescence polarization, cover the analysis plate to protect the reagents from light and evaporation, and incubate at room temperature (20-25° C.) for 2 hours.
# 11. Read fluorescence polarization in PerkinElmer EnVision® Multilabel after incubation; […]
# Sequence of EGFR Δ19del/T790M/C797S (P00533 with tags, fused parts or gaps DEL746-750/T790M/C797S, form open): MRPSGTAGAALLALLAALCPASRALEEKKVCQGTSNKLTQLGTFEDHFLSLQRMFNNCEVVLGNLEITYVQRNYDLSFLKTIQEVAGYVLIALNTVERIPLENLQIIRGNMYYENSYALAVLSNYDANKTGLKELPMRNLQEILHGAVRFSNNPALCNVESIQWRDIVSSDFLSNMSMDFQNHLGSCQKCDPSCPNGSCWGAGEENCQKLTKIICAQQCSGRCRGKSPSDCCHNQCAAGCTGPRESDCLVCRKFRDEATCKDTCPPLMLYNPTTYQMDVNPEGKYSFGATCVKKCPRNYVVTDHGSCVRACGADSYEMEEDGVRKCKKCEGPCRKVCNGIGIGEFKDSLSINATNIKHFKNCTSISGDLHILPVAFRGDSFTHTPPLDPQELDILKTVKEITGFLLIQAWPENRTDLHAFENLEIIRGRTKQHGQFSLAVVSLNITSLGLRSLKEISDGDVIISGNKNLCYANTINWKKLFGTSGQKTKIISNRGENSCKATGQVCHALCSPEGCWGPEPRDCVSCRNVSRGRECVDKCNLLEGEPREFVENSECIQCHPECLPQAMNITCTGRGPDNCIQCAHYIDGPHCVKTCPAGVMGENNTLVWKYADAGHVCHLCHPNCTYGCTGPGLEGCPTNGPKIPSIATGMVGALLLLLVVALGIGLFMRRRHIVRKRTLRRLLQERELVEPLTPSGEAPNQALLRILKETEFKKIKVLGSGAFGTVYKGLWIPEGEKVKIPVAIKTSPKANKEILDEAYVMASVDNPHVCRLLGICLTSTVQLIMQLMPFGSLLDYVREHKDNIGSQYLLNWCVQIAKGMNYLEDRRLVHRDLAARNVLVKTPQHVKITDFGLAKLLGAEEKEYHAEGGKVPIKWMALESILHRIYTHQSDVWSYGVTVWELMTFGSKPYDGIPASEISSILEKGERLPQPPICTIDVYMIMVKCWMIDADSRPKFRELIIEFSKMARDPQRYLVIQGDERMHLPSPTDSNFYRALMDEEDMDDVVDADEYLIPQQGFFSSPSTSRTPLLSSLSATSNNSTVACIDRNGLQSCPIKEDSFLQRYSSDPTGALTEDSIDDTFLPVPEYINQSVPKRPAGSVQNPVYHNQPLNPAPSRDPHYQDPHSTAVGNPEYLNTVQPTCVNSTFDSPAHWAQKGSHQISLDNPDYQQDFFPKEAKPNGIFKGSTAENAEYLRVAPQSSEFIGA
# T1 sequence (Q12809 whole entry): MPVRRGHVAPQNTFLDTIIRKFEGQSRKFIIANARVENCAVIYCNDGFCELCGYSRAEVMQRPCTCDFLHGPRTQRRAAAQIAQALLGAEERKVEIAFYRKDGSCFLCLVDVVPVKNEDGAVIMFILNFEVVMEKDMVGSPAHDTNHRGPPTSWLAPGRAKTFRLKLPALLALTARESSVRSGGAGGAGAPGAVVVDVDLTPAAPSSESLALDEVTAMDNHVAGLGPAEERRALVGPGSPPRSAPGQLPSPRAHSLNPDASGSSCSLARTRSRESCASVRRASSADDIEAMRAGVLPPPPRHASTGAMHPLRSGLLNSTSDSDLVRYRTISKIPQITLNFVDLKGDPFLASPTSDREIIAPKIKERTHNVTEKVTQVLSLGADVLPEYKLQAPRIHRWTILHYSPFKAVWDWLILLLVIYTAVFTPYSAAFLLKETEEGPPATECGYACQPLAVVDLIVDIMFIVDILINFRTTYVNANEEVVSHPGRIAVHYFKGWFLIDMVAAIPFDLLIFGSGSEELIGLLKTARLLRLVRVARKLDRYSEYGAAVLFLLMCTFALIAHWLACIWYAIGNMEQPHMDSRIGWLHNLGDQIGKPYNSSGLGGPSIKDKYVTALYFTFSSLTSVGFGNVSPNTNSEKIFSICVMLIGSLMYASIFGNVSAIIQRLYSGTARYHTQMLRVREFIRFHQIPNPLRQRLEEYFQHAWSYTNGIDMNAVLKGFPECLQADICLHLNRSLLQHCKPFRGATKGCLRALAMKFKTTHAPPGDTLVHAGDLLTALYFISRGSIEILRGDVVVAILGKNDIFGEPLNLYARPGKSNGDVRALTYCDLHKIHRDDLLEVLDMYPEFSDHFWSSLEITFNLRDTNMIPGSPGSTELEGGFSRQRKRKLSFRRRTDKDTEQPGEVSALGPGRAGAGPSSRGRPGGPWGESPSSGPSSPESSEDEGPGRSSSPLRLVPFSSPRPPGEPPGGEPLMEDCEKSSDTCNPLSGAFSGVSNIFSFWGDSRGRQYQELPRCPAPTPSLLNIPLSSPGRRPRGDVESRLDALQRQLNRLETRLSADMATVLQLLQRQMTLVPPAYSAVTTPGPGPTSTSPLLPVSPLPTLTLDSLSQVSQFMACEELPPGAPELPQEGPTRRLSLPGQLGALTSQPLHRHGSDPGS
structure (smiles),measurement,setting,value
"COc1cc(N2CCC(N3CCN(C)CC3)CC2)c(-c2cnn(C)c2)cc1Nc1ncc(Cl)c(Nc2ccc3nccnc3c2P(C)(C)=O)n1 [Compound 1, (6-((5-Chloro-2-((2-methoxy-5-(1-methyl-1hydro-pyrazol-4-yl)-4-(4-(4-methylpiperazine-1-yl)piperidin-1-yl)phenyl)amino)pyrimidin-4-yl)amino)quinoxalin-5-yl)dimethylphosphine oxide]",pIC50,EGFR Δ19del/T790M/C797S,9.52
same,pIC50,hERG protein,< 4.52
